Source: PMC7935113, “Development and in vivo evaluation of intranasal formulations of parathyroid hormone (1-34)” (Drug Delivery, 2021)
Like-named read-outs stand apart in the source and are kept apart here.

Columns and labels:
[1] = tested on: HNEpC monolayers; assay: Effect of permeation enhancers on TEER of HNEpC monolayers; assay type: cell-based, human; conditions: HNEpC monolayer, apical application, all solutions (0.005%, 0.010%, 0.015%), n = 8
Description: (§1) HNEpCs were seeded at a density of 10 × 10^4 cells/well on Transwell® supports with a pore size of 0.4 μm. TEER (Ω·cm^2) was determined using a Millicell electrical resistance system (ERS) voltohmmeter (Millipore, Bedford, MA, USA). Cell monolayers with TEER values exceeding 500 Ω·cm^2 were used for further experiments. […] Prior to the permeability experiment, the cell monolayers were equilibrated with 1.0 mL Hank’s balanced salt solution (HBSS) in the basolateral compartment and 0.4 mL culture medium in the apical chamber for 30 min. Subsequently, the apical culture medium was withdrawn, and 0.2 mL solution of a test solution was applied. Thereafter, 200 μL receiver samples from the basolateral compartment were taken every 30 min for 4 h, and then, 200 μL fresh HBSS was added to the basolateral compartment. Finally, the FITC-PTH concentration in the collected samples was analyzed using a Varioskan LUX multimode microplate reader with ex/em 485/518 nm.
HNEpC monolayers were cultured as described above. The baseline TEER was measured before the experiment for 60 min. […] A chitosan solution at 0.003% w/v in culture medium was used as a positive control. The results for each experiment are presented as percentages relative to their respective baseline TEER.

[2] = tested on: nasal septum mucosae; assay: Nasal mucosal toxicity: mucosa morphology (SEM) after intranasal dosing; conditions: SD rats, citric acid solutions (0.2-0.6%), 15 consecutive days
Description: (§2) Mucosa morphology was considered a direct indicator of nasal mucosal toxicity. […] This mucosa morphology study was performed in vivo using healthy male SD rats. The rats were lightly anesthetized with diethyl ether and intranasally administered test solutions. Generally, 0.1 mL of the corresponding solution was equally administered to the two nostrils of one rat for 15 consecutive days. Finally, 2 days after stopping intranasal administration, the rats were sacrificed by an intraperitoneal injection of urethane and their hearts were perfused with saline. The nasal septum mucosae were then carefully peeled off, fixed with 3% w/v glutaraldehyde (diluted by PBS), and dehydrated with a gradient of ethanol. Finally, the fixed nasal mucosae were dried at the CO2 critical point, sprayed with ion sputtering, and observed under SEM.

[3] = tested on: Human nasal epithelial cells (HNEpCs); conditions: MTT, n = 8
Description: Human nasal epithelial cells (HNEpCs) purchased from the American Type Culture Collection (Rockville, MD, USA) were used as an in vitro model of the nasal mucosa. The cells were cultured in culture medium (Eagle’s minimum essential medium (MEM) supplemented with 10% (v/v) fetal bovine serum (FBS) and 1% penicillin/streptomycin solution) and maintained in 5% CO2/95% humidified air at 37 °C.
HNEpCs were seeded at a density of 5 × 10^3 cells/well in 96-well plates (Corning, NY, USA) and cultured for 24 h before the experiment. […] The culture medium was used as a negative control, and 20% dimethyl sulfoxide (DMSO) was used as a positive control. Following 6 h of incubation, the test solutions were removed, and the cytotoxicity was determined using a commercial MTT kit. The cells were washed, and then, MTT reagent in culture medium was added for a further 3 h incubation at 37 °C. The remaining media was removed, and 200 μL DMSO was added to each well to dissolve the formazan crystals. The resulting absorbance was read at 490 nm.

[4] = tested on: HNEpC layers; assay: Permeability of FITC-PTH across HNEpC layers (Transwell); assay type: in vitro ADME, human; conditions: HNEpC monolayer, apical to basolateral, 10 μg/mL FITC-PTH, all tested concentrations (0.015%, 0.010% and 0.005%), fluorescence
Description: as §1, with “HNEpCs” left out, “Hank's” for “Hank’s”, “compartment.” for “compartment. Finally, the FITC-PTH concentration in the collected samples was analyzed using a Varioskan LUX multimode microplate reader with ex/em 485/518 nm.”

[5] = tested on: HNEpCs; assay: Cellular internalization of FITC-PTH; assay type: cell-based, human
Description: A 20 μg/mL FITC-PTH solution without any permeation enhancer was used as a negative control, and a 20 μg/mL FITC-PTH solution supplemented with 0.1% Triton X-100 was used as a positive control. The test solutions were added to the corresponding wells, and the amount of cellularly internalized PTH was measured after 30 min following sample applications. […] Finally, the cells were lysed with cell lysis buffer. The resulting lysis products were collected for fluorescence measurement and protein content measurement. The fluorescence measurement was carried out using a Varioskan LUX multimode microplate reader with ex/em 485/518 nm, and the protein content was measured by using a commercial BCA protein assay kit (Solarbio Life Sciences). The amount of internalized PTH(1-34) in each well was normalized to the protein content.

[6] = tested on: nasal septum mucosae; conditions: rat, in vivo
Description: as §2

[7] = cited from earlier work
[8] = Isoelectric point by capillary electrophoresis; assay type: physicochemical; conditions: authors' previous capillary electrophoresis (CE) analysis, no reference given
Description: The essential point for the development of a liquid PTH(1-34) formulation was ensuring the stability of PTH(1-34). In this context, the aqueous environment was screened by utilizing MD simulations and HPLC analysis. In recent decades, MD simulations have been increasingly reported to investigate the conformational equilibria of polypeptides in solution (Colombo et al., [2002]). […] The HPLC analysis results further confirmed that PTH(1-34) had the best chemical stability in 0.008 M ABS. According to our previous capillary electrophoresis (CE) analysis, the isoelectric point (pI) of PTH(1-34) is approximately pH 7.77, indicating easy solubility and stability under acidic condition. The pH values of PBS and ABS were 7.4 and 4.0, respectively. Consequently, 0.008 M ABS had the best stability performance, most likely due to its acidic pH value and low ionic strength.

[9] = Chemical stability of PTH(1-34) in aqueous buffer solutions at 40 °C (HPLC); assay type: physicochemical
Description: HPLC measurements were performed with an HPLC instrument equipped with a photodiode array detector. A C-18 column (Cosmosil 250 × 4.6 mm, 5 µm, Japan) was used, and the sample solutions were applied via an autosampler (Merck-Hitachi, Darmstadt, Germany). Analysis of PTH(1-34) and its degradation products was performed under the following conditions. Mobile phase A was 0.1% (v/v) TFA in acetonitrile, and mobile phase B was 0.1% TFA (v/v) in water. […] A detection wavelength of 214 nm and column temperature of 25 °C were used.
Stability studies were carried out to clarify the influence of aqueous solvent on the stability of PTH(1-34) during storage and to determine the optimal aqueous environment. First, PBS and ABS were prepared as solvent solutions: 0.063 M PBS was prepared by dissolving 3.73 g sodium dihydrogen phosphate and 36.55 g disodium hydrogen phosphate in 1000 mL Milli-Q water; 0.032 M ABS was prepared as by dissolving 0.664 g glacial acetic acid and 1.64 g sodium acetate trihydrate together in 1000 mL Milli-Q water. Then, 0.016 M ABS, 0.008 M ABS, and 0.004 M ABS were prepared by diluting 0.032 M ABS with Milli-Q water. Following preparation, the pH values of the PBS and ABS solutions were measured using a pH meter (Mettler Toledo FiveEasy Plus).
To examine the stability of peptides in each aqueous medium, 3 mg/mL PTH(1-34) was separately incubated in 0.063 M PBS, 0.032 M ABS, 0.016 M ABS, 0.008 M ABS and 0.004 M ABS. Aliquots of PTH(1-34) were individually incubated at 40 °C, and the PTH(1-34) content was analyzed at 0, 6, 12, 24, 36, 48, 60 and 72 h postincubation. In addition, the impurities of PTH(1-34) in the 0.032 M ABS, 0.016 M ABS, 0.008 M ABS and 0.004 M ABS solutions were quantified by HPLC at the time points of 0, 24, 72 and 120 h postincubation at 40 °C.

With `O=C(O)CC(O)(CC(=O)O)C(=O)O` [citric acid] the “time point of TEER reversal to the baseline level” value [1] was 40 min, the “observations in rats during intranasal administration” value [2] was “bleeding of the nose was observed” and the HNEpC viability ([3]; 6 h exposure, concentration of 0.1%) was 73.03%. The HNEpC viability ([3]; 6 h exposure, concentrations of 0.01% and 0.05%, vs culture medium) was “comparable with that of the negative control”, the “duration of enhanced permeation rate of FITC-PTH relative to control” value [4] was 60 min and the “cellular internalization of FITC-PTH (normalized to protein content)” value ([5]; 20 μg/mL FITC-PTH with 0.005%, 0.010%, 0.015% enhancer, 30 min, fluorescence 485/518 nm, n = 8) was “did not exhibit an obvious promotion effect”.
For Triton X-100, the “cellular internalization of FITC-PTH (normalized to protein content)” value ([5]; 20 μg/mL FITC-PTH with 0.1% Triton X-100, positive control) was “significantly promoted”.
In the case of “macrogol 15-hydroxystearate [Kolliphor® HS·15]”, the “observations in rats during intranasal administration” value [6] is reported as “did not induce any observed discomfort”.
In the case of nafarelin, the bioavailability ([7]; in vivo) is given as “lower than 3%”.
For salmon calcitonin, the bioavailability ([7]; intranasal peptide formulations devoid of permeation enhancers, ref Ozsoy et al., [2009]) is listed as “lower than 3%”.
For `C[S+](C)[O-]` [DMSO, dimethyl sulfoxide], the HNEpC viability ([3]; 6 h, 20% DMSO positive control, vs culture medium) was “statistically lower”.
With parathyroid hormone (1-34) [PTH(1-34)] the “isoelectric point (pI)” value [8] was about 7.77 pH, the “impurities of PTH(1-34)” value ([9]; 3 mg/mL in 0.008 M ABS compared with 0.032, 0.016 and 0.004 M ABS, 120 h, HPLC) was “lowest amount of impurities” and the “PTH(1-34) content” value ([9]; chemical stability, 3 mg/mL in 0.032, 0.016, 0.008 and 0.004 M ABS (pH 4.0), up to 72 h, HPLC UV 214 nm) was “no detectable decrease”. The “content of PTH(1-34)” value ([9]; chemical stability, 3 mg/mL in 0.063 M PBS (pH 7.4), after 72 h of incubation, HPLC UV 214 nm) was 76.34%.
